Measurements: publication PMC10547211, “Neuronal expression in Drosophila of an evolutionarily conserved metallophosphodiesterase reveals pleiotropic roles in longevity and odorant response” (PLOS Genetics, 2023)

Target: T1, dMpped (Drosophila melanogaster, UniProt Q9VT29)
T1 construct: gene Mpped; full-length coding region (300 residues) amplified from whole-fly cDNA; E. coli BL21DE3; gel filtration; about 37 kDa on gel
Assay: colorimetric p-nitrophenol release, […] nm
Format: biochemical
Conditions: Mn2+ as metal cofactor (5 mM in standard assay); pH 9.0 triple buffer; 5 mM 2-mercaptoethanol; 10 mM NaCl

T1 sequence (Q9VT29 entry or part of it): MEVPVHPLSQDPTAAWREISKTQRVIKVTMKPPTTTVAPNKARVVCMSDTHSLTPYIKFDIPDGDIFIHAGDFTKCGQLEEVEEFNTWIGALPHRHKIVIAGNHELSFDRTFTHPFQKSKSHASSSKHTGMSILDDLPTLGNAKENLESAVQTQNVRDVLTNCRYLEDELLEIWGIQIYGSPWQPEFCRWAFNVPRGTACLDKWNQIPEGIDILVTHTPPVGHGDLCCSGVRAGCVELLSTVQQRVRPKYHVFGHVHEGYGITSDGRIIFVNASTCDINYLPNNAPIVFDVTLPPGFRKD

Question: O=[N+]([O-])c1ccc(OP(=O)(O)c2ccccc2)cc1 [pNPPP] was tested. Which Km did it give?
Answer: The Km was roughly 10 mM.
